# Assay results taken from paper PMC6364417, “Kinase inhibitor library screening identifies synergistic drug combinations effective in sensitive and resistant melanoma cells” (Journal of Experimental & Clinical Cancer Research : CR, 2019).
# Columns and labels:
# Assay in all cases: Kinase inhibitor library screening, PrestoBlue cell viability, 1 or 10 μM, 72 h
# A375 cells (parental) = conditions: A375 Parental, 72 h
# [1] = test system: A375-GP cells (Dabrafenib-resistant); conditions: A375 GP, 72 h
# [2] = test system: IGR37-GP cells (Dabrafenib-resistant); conditions: IGR37 GP, 72 h; for Cell viability in kinase inhibitor library screening, IGR37 GP, 1μΜ: in %
# 501Mel cells (parental) = conditions: 501Mel Parental, 72 h; for Cell viability in kinase inhibitor library screening, 501Mel Parental, 1μΜ / Cell viability in kinase inhibitor library screening, 501Mel Parental, 10μΜ: in %
# Outline: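 Treatment: 72 h with inhibitor. Detection: PrestoBlue, plate reader. Output: viability as % untreated control. Replicates: duplicate minimum. Lines: parental plus Vemurafenib- or Dabrafenib-resistant derivatives.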
# IGR37 cells (parental) = conditions: IGR37 Parental, 72 h; for Cell viability in kinase inhibitor library screening, IGR37 Parental, 1μΜ / Cell viability in kinase inhibitor library screening, IGR37 Parental, 10μΜ: in %
# [3] = test system: 501Mel-GP cells (Dabrafenib-resistant); conditions: 501Mel GP, 72 h; for Cell viability in kinase inhibitor library screening, 501Mel GP, 1μΜ / Cell viability in kinase inhibitor library screening, 501Mel GP, 10μΜ: in %
# [4] = test system: 501Mel-XP cells (Vemurafenib-resistant); conditions: 501Mel XP, 72 h; for Cell viability in kinase inhibitor library screening, 501Mel XP, 1μΜ / Cell viability in kinase inhibitor library screening, 501Mel XP, 10μΜ: in %
# [5] = test system: IGR37-XP cells (Vemurafenib-resistant); conditions: IGR37 XP, 72 h; for Cell viability in kinase inhibitor library screening, IGR37 XP, 1μΜ: in %
# [6] = test system: A375-XP cells (Vemurafenib-resistant); conditions: A375 XP, 72 h
SMILES,"Cell viability in kinase inhibitor library screening, A375 Parental, 10μΜ (A375 cells (parental); 10μΜ)","Cell viability in kinase inhibitor library screening, A375 Parental, 1μΜ (A375 cells (parental); 1μΜ)","Cell viability in kinase inhibitor library screening, A375 GP, 1μΜ ([1]; 1μΜ)","Cell viability in kinase inhibitor library screening, A375 GP, 10μΜ ([1]; 10μΜ)","Cell viability in kinase inhibitor library screening, IGR37 GP, 10μΜ ([2]; 10μΜ) [%]","Cell viability in kinase inhibitor library screening, IGR37 GP, 1μΜ ([2]; 1μΜ)","Cell viability in kinase inhibitor library screening, 501Mel Parental, 1μΜ (501Mel cells (parental); 1μΜ)","Cell viability in kinase inhibitor library screening, 501Mel Parental, 10μΜ (501Mel cells (parental); 10μΜ)","Cell viability in kinase inhibitor library screening, IGR37 Parental, 1μΜ (IGR37 cells (parental); 1μΜ)","Cell viability in kinase inhibitor library screening, IGR37 Parental, 10μΜ (IGR37 cells (parental); 10μΜ)","Cell viability in kinase inhibitor library screening, 501Mel GP, 1μΜ ([3]; 1μΜ)","Cell viability in kinase inhibitor library screening, 501Mel GP, 10μΜ ([3]; 10μΜ)","Cell viability in kinase inhibitor library screening, 501Mel XP, 1μΜ ([4]; 1μΜ)","Cell viability in kinase inhibitor library screening, 501Mel XP, 10μΜ ([4]; 10μΜ)","Cell viability in kinase inhibitor library screening, IGR37 XP, 10μΜ ([5]; 10μΜ) [%]","Cell viability in kinase inhibitor library screening, IGR37 XP, 1μΜ ([5]; 1μΜ)","Cell viability in kinase inhibitor library screening, A375 XP, 1μΜ ([6]; 1μΜ)","Cell viability in kinase inhibitor library screening, A375 XP, 10μΜ ([6]; 10μΜ)",cell viability (kinase inhibitor library screening) (A375 cells (parental); 10μΜ) [%],cell viability (kinase inhibitor library screening) ([1]; 1μΜ) [%],also measured
C[C@@H](Oc1cc(-n2cnc3ccc(CN4CCN(C)CC4)cc32)sc1C(N)=O)c1ccccc1C(F)(F)F [GSK461364],29.0,8.9,12.0,26.2,69.3,91.5,18.0,16.7,29.0,57.5,14.1,31.3,8.8,5.4,28.5,70.5,26.8,31.7,–,–,–
CCn1c(-c2nonc2N)nc2c(C#CC(C)(C)O)ncc(OC[C@H]3CCCNC3)c21 [GSK690693],–,–,–,–,–,–,–,–,–,–,–,–,–,–,–,–,–,–,99.2,99.1,cell viability (kinase inhibitor library screening) ([1]; 10μΜ): 92.8%; cell viability (kinase inhibitor library screening) ([2]; 1μΜ): 93.2%; cell viability (kinase inhibitor library screening) ([2]; 10μΜ): 65.9%; cell viability (kinase inhibitor library screening) (501Mel cells (parental); 1μΜ): 87.0%; cell viability (kinase inhibitor library screening) (501Mel cells (parental); 10μΜ): 43.2%; cell viability (kinase inhibitor library screening) (IGR37 cells (parental); 1μΜ): 104.5%; cell viability (kinase inhibitor library screening) (IGR37 cells (parental); 10μΜ): 68.7%; cell viability (kinase inhibitor library screening) ([3]; 1μΜ): 87.1%; cell viability (kinase inhibitor library screening) ([3]; 10μΜ): 33.9%; cell viability (kinase inhibitor library screening) ([4]; 1μΜ): 66.4%; cell viability (kinase inhibitor library screening) ([4]; 10μΜ): 17.0%; cell viability (kinase inhibitor library screening) ([5]; 1μΜ): 94.0%; cell viability (kinase inhibitor library screening) ([5]; 10μΜ): 18.7%; cell viability (kinase inhibitor library screening) ([6]; 1μΜ): 96.1%; cell viability (kinase inhibitor library screening) ([6]; 10μΜ): 87.9%
O=C1NC(=O)/C(=C/c2ccc3nccc(-c4ccncc4)c3c2)S1 [GSK1059615],4.4,62.0,59.6,4.2,6.4,75.2,65.3,1.4,82.5,4.7,45.2,1.5,43.3,0.262,2.2,58.7,54.8,3.7,–,–,–
CCn1cc(-c2ccnc3[nH]c(-c4cccc(CN(C)C)c4)cc23)c(-c2ccc(NC(=O)N(C)C)cc2)n1 [GSK1070916],–,–,–,–,–,–,–,–,–,–,–,–,–,–,–,–,–,–,36.0,47.6,cell viability (kinase inhibitor library screening) (A375 cells (parental); 1μΜ): 53.8%; cell viability (kinase inhibitor library screening) ([1]; 10μΜ): 34.9%; cell viability (kinase inhibitor library screening) ([2]; 1μΜ): 98.0%; cell viability (kinase inhibitor library screening) ([2]; 10μΜ): 46.1%; cell viability (kinase inhibitor library screening) (501Mel cells (parental); 1μΜ): 94.0%; cell viability (kinase inhibitor library screening) (501Mel cells (parental); 10μΜ): 36.8%; cell viability (kinase inhibitor library screening) (IGR37 cells (parental); 1μΜ): 94.1%; cell viability (kinase inhibitor library screening) (IGR37 cells (parental); 10μΜ): 85.3%; cell viability (kinase inhibitor library screening) ([3]; 10μΜ): 50.8%; cell viability (kinase inhibitor library screening) ([4]; 1μΜ): 90.5%; cell viability (kinase inhibitor library screening) ([4]; 10μΜ): 18.1%; cell viability (kinase inhibitor library screening) ([5]; 1μΜ): 88.9%; cell viability (kinase inhibitor library screening) ([5]; 10μΜ): 7.5%; cell viability (kinase inhibitor library screening) ([6]; 1μΜ): 57.6%; cell viability (kinase inhibitor library screening) ([6]; 10μΜ): 37.9%
